{"source": "ChEMBL document CHEMBL1201862", "about": "“PubChem BioAssay data set” (2004)", "key": {"[1]": {"assay": "growth suppression of PTEN-null colon cells, dose response, cell-based, HCT116 PTEN knockout (AID 1047);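 note: HCT116 colon tumor cells with PTEN knocked out; cells exposed to compound for 60 hours before readout; potency for loss of cell viability measured by luminescence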", "assay_type": "functional"}, "INS1": {"tested_on": "INS1", "assay": "beta cell apoptosis inhibitors, cytokine rescue, dose response, luminescence, retest (AID 449756);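 note: cell death triggered by IL-1 beta plus TNF-alpha plus IFN-gamma mixture; protective hits raise ATP signal compared with cytokine alone wells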", "assay_type": "functional, cell-based", "settings": "Rattus norvegicus"}, "[2]": {"assay": "growth suppression of beta-catenin-knockout colon cells, dose response, cell-based, HCT116, human colon tumor (AID 1045);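 note: HCT116 colon tumor cells with beta catenin knocked out; cells exposed to compound for 60 hours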", "assay_type": "functional"}, "[3]": {"assay": "inhibitors of firefly luciferase expression or activity, dose response, H4 neuroglioma cells, luminescence (AID 1990)", "assay_type": "functional, cell-based"}, "[4]": {"assay": "Luminescence Cell-Based Dose Response HTS to Identify Inhibitors of 5'UTR Stem-Loop Driven Prion Protein mRNA Translation in H4 Neuroglioblastoma Cells. [Related pubchem assays: 1827 (Project Summary), 1813 (Primary HTS)]", "assay_type": "functional"}, "[5]": {"assay": "inhibitors of SNCA 5'UTR-driven reporter translation, confirmation, H4 neuroglioma cells, luminescence (AID 1988)", "assay_type": "functional, cell-based"}, "Protein skinhead-1": {"target": "T1, Protein skinhead-1 (Caenorhabditis elegans, UniProt P34707)", "T1 sequence (P34707 whole entry)": "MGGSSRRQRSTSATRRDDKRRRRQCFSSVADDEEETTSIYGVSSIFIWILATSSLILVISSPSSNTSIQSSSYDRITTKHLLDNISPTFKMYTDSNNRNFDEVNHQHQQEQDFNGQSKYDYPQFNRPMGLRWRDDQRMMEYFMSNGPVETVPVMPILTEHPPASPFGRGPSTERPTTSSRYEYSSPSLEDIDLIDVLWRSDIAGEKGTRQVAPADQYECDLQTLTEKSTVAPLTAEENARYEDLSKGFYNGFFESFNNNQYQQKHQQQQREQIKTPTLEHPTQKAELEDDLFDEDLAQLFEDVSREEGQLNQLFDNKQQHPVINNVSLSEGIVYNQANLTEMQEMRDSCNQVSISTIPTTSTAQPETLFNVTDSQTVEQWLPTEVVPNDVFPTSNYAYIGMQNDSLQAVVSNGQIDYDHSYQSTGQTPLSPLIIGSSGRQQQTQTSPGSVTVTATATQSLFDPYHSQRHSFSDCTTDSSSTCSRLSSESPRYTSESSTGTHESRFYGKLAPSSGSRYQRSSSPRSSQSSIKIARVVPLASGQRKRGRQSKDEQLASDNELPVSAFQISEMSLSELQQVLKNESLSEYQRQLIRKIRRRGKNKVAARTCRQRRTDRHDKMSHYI", "assay_type": "functional"}, "[6]": {"target": "T2, Heat shock factor protein 1 (Mus musculus, UniProt P38532)", "T2 sequence (P38532 whole entry)": "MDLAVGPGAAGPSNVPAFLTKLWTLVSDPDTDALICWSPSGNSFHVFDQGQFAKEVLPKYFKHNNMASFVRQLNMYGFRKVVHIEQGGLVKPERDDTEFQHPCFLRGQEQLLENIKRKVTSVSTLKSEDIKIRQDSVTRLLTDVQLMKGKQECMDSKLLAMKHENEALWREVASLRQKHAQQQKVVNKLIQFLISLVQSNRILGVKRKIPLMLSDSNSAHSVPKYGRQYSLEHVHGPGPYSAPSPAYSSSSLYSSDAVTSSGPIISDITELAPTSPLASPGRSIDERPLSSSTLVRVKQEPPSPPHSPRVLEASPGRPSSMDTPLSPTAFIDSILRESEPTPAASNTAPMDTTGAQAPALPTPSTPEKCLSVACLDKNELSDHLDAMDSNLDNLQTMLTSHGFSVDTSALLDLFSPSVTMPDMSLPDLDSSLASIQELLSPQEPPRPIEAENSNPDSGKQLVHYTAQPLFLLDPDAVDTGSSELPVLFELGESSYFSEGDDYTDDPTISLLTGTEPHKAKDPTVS", "assay": "HSF1 potentiators in luciferase reporter cells, confirmation, cell-based, NIH3T3, luminescence, dose retest (AID 435004);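 note: stress induced by proteasome inhibitor MG132 added 30 min after compound; actives raise luminescence as potentiators of the MG132 stress response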", "assay_type": "functional"}, "[7]": {"target": "FAD-linked sulfhydryl oxidase ALR (Homo sapiens, UniProt P55789)", "sequence (P55789 whole entry)": "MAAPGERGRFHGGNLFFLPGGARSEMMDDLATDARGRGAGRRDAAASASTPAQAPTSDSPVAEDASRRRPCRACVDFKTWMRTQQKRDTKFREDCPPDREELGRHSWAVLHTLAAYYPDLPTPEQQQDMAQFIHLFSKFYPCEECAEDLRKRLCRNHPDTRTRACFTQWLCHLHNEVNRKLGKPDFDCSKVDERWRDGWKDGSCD", "assay": "inhibitors of human ALR sulfhydryl oxidase, dose response, biochemical, H2O2 detection, luminescence, cherry-pick (AID 493248)"}, "[8]": {"target": "Heat shock protein HSP 90-alpha (Homo sapiens, UniProt P07900)", "assay_type": "functional, organism-based"}, "[9]": {"assay": "cytotoxicity toward NIH3T3 fibroblasts, dose response, counter-screen, cell-based, ATP luminescence, mouse fibroblasts (AID 2010);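 note: cells exposed to compound for about 90 hours before reading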", "assay_type": "functional"}, "[10]": {"assay": "inhibitors of intracellular T. cruzi replication, confirmation, NIH3T3 host cells, beta-gal luminescence (AID 2044);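 note: luminescent beta-galactosidase reporter signal from transgenic T. cruzi replicating inside host cells; inhibitors lower the luminescence signal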", "assay_type": "functional, cell-based"}, "[11]": {"assay": "HEp-2 cell cytotoxicity, dose response, cytotoxicity control for RSV inhibitor project, HTS (AID 2410)", "assay_type": "functional", "settings": "human respiratory syncytial virus"}, "[12]": {"assay": "Luminescence Cell-Based Dose Retest to Confirm Inhibitors of Cancer Stem Cells. [Related pubchem assays (depositor defined):AID2717, AID2721]", "assay_type": "functional", "settings": "Homo sapiens"}, "[13]": {"assay": "control 3'UTR Renilla luciferase suppression, dose response, counter-screen for Shn3 inhibitor project, cell-based, Clone20-Shn3RL, cherry-picked (AID 624133)", "assay_type": "functional"}}, "note": "The source made the active and inactive calls."}
{"smiles": "O=C1/C(=C/c2cccnc2)CCC/C1=C\\c1cccnc1", "values": [{"measurement": "EC50", "setting": "[1]", "value": "1.43 µM (active)"}, {"measurement": "AC50", "setting": "INS1", "value": "3.04 µM (active)"}, {"measurement": "EC50", "setting": "[2]", "value": "1.09 µM (active)"}]}
{"smiles": "COc1ccc(-c2csc(/C(C#N)=C/Nc3cc4oc5ccccc5c4cc3OC)n2)cc1", "values": [{"measurement": "EC50", "setting": "[3]", "value": "> 120 µM (not active)"}, {"measurement": "EC50", "setting": "[4]", "value": "91.7 µM (active)"}, {"measurement": "EC50", "setting": "[5]", "value": "> 120 µM (not active)"}]}
{"smiles": "CN(CCCN1CCOCC1)C(=O)c1cc(COc2cccc(C(F)(F)F)c2)on1", "values": [{"measurement": "IC50", "setting": "Protein skinhead-1", "value": "> 100 µM (inactive)"}]}
{"smiles": "COc1cccc(C2C([N+](=O)[O-])=C(N)Oc3c2c(=O)oc2ccccc32)c1", "note": "(centres undefined)", "values": [{"measurement": "EC50", "setting": "[6]", "value": "> 260 µM (inactive)"}]}
{"smiles": "O=C(CN1CCCC1)Nc1sc2c(c1C(=O)Nc1ccc(Br)cc1)CCC2", "values": [{"measurement": "IC50", "setting": "Protein skinhead-1", "value": "> 100 µM (inactive)"}]}
{"smiles": "CC(=O)Nc1ccc(S(=O)(=O)NCc2ccc3c(c2)cc(C)n3C)cc1", "values": [{"measurement": "IC50", "setting": "Protein skinhead-1", "value": "> 100 µM (inactive)"}]}
{"smiles": "Cc1cccc(-[n+]2c(-c3cccc(Br)c3)[nH]c3nc4ccccc4nc32)c1", "values": [{"measurement": "EC50", "setting": "[3]", "value": "13.2 µM (active)"}, {"measurement": "EC50", "setting": "[4]", "value": "13.7 µM (active)"}, {"measurement": "EC50", "setting": "[5]", "value": "10.5 µM (active)"}]}
{"smiles": "Cc1ccc(NC2c3ncccc3C(=O)N2C2CCCCC2)cc1", "note": "(centres undefined)", "values": [{"measurement": "AC50", "setting": "[7]", "value": "2.07 µM (active)"}, {"measurement": "EC50", "setting": "[6]", "value": "> 260 µM (inactive)"}]}
{"smiles": "CCOC(=O)c1c(COc2ccccc2)oc2ccc(O)cc12", "values": [{"measurement": "EC50", "setting": "[6]", "value": "> 260 µM (inactive)"}]}
{"smiles": "Cc1cc(S(=O)(=O)NCc2ccccc2)ccc1OCC(=O)Nc1cccc([N+](=O)[O-])c1", "values": [{"measurement": "EC50", "setting": "[1]", "value": "13 µM (active)"}, {"measurement": "EC50", "setting": "[2]", "value": "14.9 µM (active)"}]}
{"smiles": "O=S(=O)(NC1CCCCCC1)c1ccc(Br)s1", "values": [{"measurement": "AC50", "setting": "[8]", "value": "17.2 µM (active)"}]}
{"smiles": "COc1ccc(-c2cc(=O)oc3cc(OCC(=O)N(C)C)ccc23)cc1", "values": [{"measurement": "IC50", "setting": "Protein skinhead-1", "value": "> 100 µM (inactive)"}]}
{"smiles": "CCOc1cc(CNCCSc2nnnn2C)cc(Br)c1OCc1ccccc1F", "values": [{"measurement": "EC50", "setting": "[9]", "value": "> 60 µM (not active)"}, {"measurement": "IC50", "setting": "Protein skinhead-1", "value": "24.1 µM (active)"}, {"measurement": "EC50", "setting": "[10]", "value": "2.13 µM (active)"}]}
{"smiles": "Cc1ccc(CNC(=O)CSc2ccsc2[N+](=O)[O-])cc1", "values": [{"measurement": "EC50", "setting": "[6]", "value": "31.5 µM (active)"}]}
{"smiles": "Cc1ccc(C2=NC(C)(C)N=C2SCC(=O)Nc2ccc(Cl)cc2)cc1", "values": [{"measurement": "AC50", "setting": "[8]", "value": "15.1 µM (active)"}, {"measurement": "CC50", "setting": "[11]", "value": "30.5 µM (active)"}]}
{"smiles": "C=Cn1ccnc1P(=S)(c1ccc2c(c1)c1ccccc1n2CC)c1nccn1C=C", "values": [{"measurement": "EC50", "setting": "[1]", "value": "4.12 µM (active)"}, {"measurement": "EC50", "setting": "[2]", "value": "4.28 µM (active)"}, {"measurement": "AC50", "setting": "[12]", "value": "1.5 µM (active)"}]}
{"smiles": "Cc1ccc(C)c(Nc2nc3ccc(C)cc3n3cnnc23)c1", "values": [{"measurement": "EC50", "setting": "[3]", "value": "14.9 µM (active)"}, {"measurement": "EC50", "setting": "[4]", "value": "> 120 µM (not active)"}, {"measurement": "EC50", "setting": "[5]", "value": "> 120 µM (not active)"}]}
{"smiles": "CN(CC(=O)NCc1ccc2c(c1)OCO2)S(=O)(=O)c1ccc(Br)s1", "values": [{"measurement": "AC50", "setting": "[13]", "value": "28.2 µM (active)"}]}
{"smiles": "O=C(Nc1ccc2c(c1)CN(Cc1ccco1)CC2)C1CCCO1", "note": "(centres undefined)", "values": [{"measurement": "IC50", "setting": "Protein skinhead-1", "value": "> 100 µM (inactive)"}]}
{"smiles": "COc1ccc(C2=Nn3c(nnc3-c3ccccc3)SC2)cc1OC", "values": [{"measurement": "EC50", "setting": "[3]", "value": "54.9 µM (active)"}, {"measurement": "EC50", "setting": "[4]", "value": "> 120 µM (not active)"}, {"measurement": "EC50", "setting": "[5]", "value": "0.318 µM (active)"}]}
{"smiles": "COc1cccc(-c2noc(-c3ccoc3C)n2)c1", "values": [{"measurement": "IC50", "setting": "Protein skinhead-1", "value": "86.4 µM (inactive)"}]}
{"smiles": "O=C(Nc1ccc(F)cc1)C1CCN(c2ncnc3c2nc2n3CCCCC2)CC1", "values": [{"measurement": "EC50", "setting": "[3]", "value": "17 µM (active)"}, {"measurement": "EC50", "setting": "[4]", "value": "16.9 µM (active)"}, {"measurement": "EC50", "setting": "[5]", "value": "15.8 µM (active)"}]}
{"smiles": "Cc1ccc2nc(NC(=O)/C=C/c3ccc4c(c3)OCO4)sc2c1", "values": [{"measurement": "EC50", "setting": "[1]", "value": "4.16 µM (active)"}, {"measurement": "AC50", "setting": "INS1", "value": "3.6 µM (active)"}, {"measurement": "EC50", "setting": "[2]", "value": "4.66 µM (active)"}]}
{"smiles": "Nc1nnc(SCC(=O)N2CCN(c3cccc(Cl)c3)CC2)n1-c1ccccc1", "values": [{"measurement": "IC50", "setting": "Protein skinhead-1", "value": "> 100 µM (inactive)"}]}
{"smiles": "Cc1ccc(C)c(NC(=O)/C(C#N)=C/c2ccc[nH]2)c1", "values": [{"measurement": "IC50", "setting": "Protein skinhead-1", "value": "> 100 µM (inactive)"}]}
{"smiles": "C=CCn1c(COc2ccc(CC)cc2)nnc1SC/C(O)=C(\\C#N)c1nc2ccccc2[nH]1", "values": [{"measurement": "EC50", "setting": "[6]", "value": "> 260 µM (inactive)"}]}
{"smiles": "Clc1ccc(Cn2cc(/C=N/n3cnnc3)c3ccccc32)cc1", "values": [{"measurement": "EC50", "setting": "[3]", "value": "14.6 µM (active)"}, {"measurement": "EC50", "setting": "[4]", "value": "> 120 µM (not active)"}, {"measurement": "EC50", "setting": "[5]", "value": "13.1 µM (active)"}]}
{"smiles": "CC(=C/c1ccccc1)/C=N/n1cnnc1", "values": [{"measurement": "EC50", "setting": "[3]", "value": "11 µM (active)"}, {"measurement": "EC50", "setting": "[4]", "value": "20.4 µM (active)"}, {"measurement": "EC50", "setting": "[5]", "value": "13.5 µM (active)"}]}
{"smiles": "O=C1/C(=C/c2ccccc2)CCCc2ccccc21", "values": [{"measurement": "IC50", "setting": "Protein skinhead-1", "value": "17.9 µM (active)"}]}
